Patent publication US11518777B2, “Inhibitors of the shikimate pathway” (Eberhard Karls Universität Tübingen, priority 2017, dated 2022)

Tests used:
A. thaliana = test: Germination and seedling size of A. thaliana on agar containing inhibitor; conditions: for root and cotyledons formation: 260 μM (glyphosate equimolar)
Legionella = format: cell-based; conditions: natural water samples, 37° C., after ten days

| Compound | gravitropism of the seedlings (A. thaliana; 260 μM) | root and cotyledons formation (A. thaliana) | size of the seedlings (A. thaliana; 260 μM, 7 days of germination) [mm] | size of the seedlings compared to the control (A. thaliana; 260 μM, 7 days of germination) | germination process (A. thaliana; 130-260 μM) | inhibitory capacity on A. thaliana compared to glyphosate (seedling-size and morphological appearance) (A. thaliana; concentrations higher than 130 μM (~25 μg/mL)) | growth inhibitory effects on A. thaliana (A. thaliana; concentrations up to 50 μM, 7 days of germination) | number of CFUs of Legionella, times lower compared to the control (Legionella) |
| --- | --- | --- | --- | --- | --- | --- | --- | --- |
| C[C@@H](O)[C@@H](O)[C@@H](O)[C@H](O)C(=O)CO [7dSh, 7-deoxy-D-altro-heptulose] | impaired in gravitropism | only minor root and cotyledons formation was observed | ~2 | three times lower | came to an arrest within the first days | significant increased inhibitory capacity | comparable to glyphosate | 4-5 times lower |
| O=C(O)CNCP(=O)(O)O [glyphosate, reference compound] |  | developed further and showed more distinct root and cotyledons formation |  |  |  |  |  |  |
